For assay [1], the system named is STAT5 phosphorylation by GMCSF in TF-1 cells. The assay can be described thus: JAK cellular assay: STAT5 phosphorylation by GMCSF in TF-1 cells (HTRF). It is filed as cell-based. Particulars: TF-1 cells, GMCSF 5 ng/ml, pSTAT5 HTRF, read-out: Cell Based Assay (μM) TF-1/GMCSF/pSTAT5. The method, boiled down: (§1)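 Phospho-STAT3 (IL-6, 30 ng/ml) and phospho-STAT5 (GMCSF, 5 ng/ml) read by HTRF in lysates after 20 min cytokine exposure, minus unstimulated-cell background. Cells were serum-starved overnight, plated at 120,000/well, given compound 30 min at 37 °C beforehand; DMSO 0.2% final.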
A general note: Time-resolved FRET reads energy transfer from a long-lived donor to a nearby acceptor.

Assay [2] concerns the target T1, Recombinant JAK3 (Homo sapiens, UniProt P52333).
T1 construct: purchased Carna Biosciences
T1 sequence (P52333 1-1124): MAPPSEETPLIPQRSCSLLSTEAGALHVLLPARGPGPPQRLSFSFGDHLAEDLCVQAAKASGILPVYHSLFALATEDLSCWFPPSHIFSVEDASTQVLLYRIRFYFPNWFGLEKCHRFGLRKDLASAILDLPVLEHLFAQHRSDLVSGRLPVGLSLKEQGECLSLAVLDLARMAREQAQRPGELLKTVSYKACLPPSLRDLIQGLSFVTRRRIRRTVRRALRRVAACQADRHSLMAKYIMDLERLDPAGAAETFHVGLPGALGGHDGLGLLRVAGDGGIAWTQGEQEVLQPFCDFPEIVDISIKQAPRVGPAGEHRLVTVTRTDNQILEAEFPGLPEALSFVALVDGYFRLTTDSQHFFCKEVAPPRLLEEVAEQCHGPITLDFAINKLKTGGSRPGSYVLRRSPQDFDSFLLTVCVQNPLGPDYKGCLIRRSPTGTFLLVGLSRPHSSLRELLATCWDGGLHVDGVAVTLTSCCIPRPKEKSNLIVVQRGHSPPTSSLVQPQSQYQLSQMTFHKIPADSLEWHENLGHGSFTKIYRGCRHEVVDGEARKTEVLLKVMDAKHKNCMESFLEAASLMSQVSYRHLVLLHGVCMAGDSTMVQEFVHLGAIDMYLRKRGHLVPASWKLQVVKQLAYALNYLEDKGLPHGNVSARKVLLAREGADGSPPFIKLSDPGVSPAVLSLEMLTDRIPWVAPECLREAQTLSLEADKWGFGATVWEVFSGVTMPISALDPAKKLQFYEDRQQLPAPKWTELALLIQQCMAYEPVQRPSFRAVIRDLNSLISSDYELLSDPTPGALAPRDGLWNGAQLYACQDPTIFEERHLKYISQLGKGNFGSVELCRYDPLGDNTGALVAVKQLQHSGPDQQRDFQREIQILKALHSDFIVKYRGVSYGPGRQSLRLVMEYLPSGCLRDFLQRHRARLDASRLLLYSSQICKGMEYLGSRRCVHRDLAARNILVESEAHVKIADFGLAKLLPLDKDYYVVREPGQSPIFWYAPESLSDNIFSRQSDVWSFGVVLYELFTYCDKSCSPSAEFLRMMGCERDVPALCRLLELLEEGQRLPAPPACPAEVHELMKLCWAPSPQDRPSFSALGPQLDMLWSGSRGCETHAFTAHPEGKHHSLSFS
Description: JAK biochemical assay (LANCE Ultra TR-FRET), JAK3. As to conditions: recombinant JAK3, TR-FRET; read-out: Biochemical Assay (μM) JAK3. The essentials: (§2)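 Kinase reactions ran in buffer of 50 mM HEPES pH 7.5 with 1 mM EGTA, 10 mM MgCl2, 2 mM DTT and 0.01% Tween-20, using recombinant enzyme. Phosphorylated ULight substrate was detected by TR-FRET, and compound effect expressed as % inhibition against vehicle.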

Assay [3] deals with STAT3 phosphorylation by IL-6 in TF-1 cells. The assay can be described thus: JAK cellular assay: STAT3 phosphorylation by IL-6 in TF-1 cells (HTRF). It is filed as cell-based. Particulars: IL-6 30 ng/ml, pSTAT3 HTRF, read-out: Cell Based Assay (μM) TF-1/IL-6/pSTAT3. The essentials: as §1
Assay [4] has as its system STAT5 phosphorylation by IL-2 in HT-2 cells. Description: STAT5 phosphorylation by IL-2 in HT-2 cells (HTRF). The format is cell-based. Particulars: IL-2 50 U/ml, pSTAT5 HTRF, read-out: Cell Based Assay (μM) HT-2/IL-2/pSTAT5. The method, then:
HT-2 cells were starved […] in RPMI phenol red with 10% fetal bovine serum for 4 hours in CO2 incubator maintained at 37° c. Compounds were diluted in DMSO and added to 96 well plate containing a final density of 1,20,000 cells per well. Cells and compounds are incubated for 30 minutes in CO2 incubator maintained at 37° C. and final DMSO concentration in cell based assay was 0.2%. Human recombinant cytokine, IL-2 (50 U/ml) was added to the plate containing cells and compound and incubated for 20 minutes with gentle tapping/shaking at every 5 minutes once. Compound mediated effects on STAT5 phosphorylation was measured in the lysates prepared by using CISBIO pSTAT5 detection kit by HTRF method. Background signal obtained from cells which were not activated with cytokines, was subtracted from vehicle controls and compound treated wells.

The target in assay [5] is T2, Recombinant JAK2 (Homo sapiens, UniProt O60674).
T2 construct: purchased Carna Biosciences
The assay can be described thus: JAK biochemical assay (LANCE Ultra TR-FRET), JAK2. Particulars: recombinant JAK2, TR-FRET; read-out: Biochemical Assay (μM) JAK2. The method, boiled down:
as §2

In assay [6] the target is T3, Recombinant JAK1 (Homo sapiens, UniProt P23458).
T3 construct: purchased Carna Biosciences
The assay can be described thus: JAK biochemical assay (LANCE Ultra TR-FRET), JAK1. Particulars: recombinant JAK1, TR-FRET; read-out: Biochemical Assay (μM) JAK1. The method, boiled down: as §2

For assay [7], the target named is T4, Recombinant TYK2 (Homo sapiens, UniProt P29597).
T4 construct: purchased Carna Biosciences
The assay can be described thus: JAK biochemical assay (LANCE Ultra TR-FRET), TYK2. Particulars: recombinant TYK2, TR-FRET; read-out: Biochemical Assay (μM) TYK2. The essentials: as §2

This passage reports IC50 results from patent US12516056B2, “Compounds for inhibition of janus kinase 1” (MANKIND PHARMA LTD., priority 2019, dated 2026).

The structures appear in SMILES notation. Counter-ions that a name gives are not always drawn. Like-named read-outs stand apart in the source and are kept apart here. Bounds are passed on as bounds.

T4 sequence (P29597 whole entry): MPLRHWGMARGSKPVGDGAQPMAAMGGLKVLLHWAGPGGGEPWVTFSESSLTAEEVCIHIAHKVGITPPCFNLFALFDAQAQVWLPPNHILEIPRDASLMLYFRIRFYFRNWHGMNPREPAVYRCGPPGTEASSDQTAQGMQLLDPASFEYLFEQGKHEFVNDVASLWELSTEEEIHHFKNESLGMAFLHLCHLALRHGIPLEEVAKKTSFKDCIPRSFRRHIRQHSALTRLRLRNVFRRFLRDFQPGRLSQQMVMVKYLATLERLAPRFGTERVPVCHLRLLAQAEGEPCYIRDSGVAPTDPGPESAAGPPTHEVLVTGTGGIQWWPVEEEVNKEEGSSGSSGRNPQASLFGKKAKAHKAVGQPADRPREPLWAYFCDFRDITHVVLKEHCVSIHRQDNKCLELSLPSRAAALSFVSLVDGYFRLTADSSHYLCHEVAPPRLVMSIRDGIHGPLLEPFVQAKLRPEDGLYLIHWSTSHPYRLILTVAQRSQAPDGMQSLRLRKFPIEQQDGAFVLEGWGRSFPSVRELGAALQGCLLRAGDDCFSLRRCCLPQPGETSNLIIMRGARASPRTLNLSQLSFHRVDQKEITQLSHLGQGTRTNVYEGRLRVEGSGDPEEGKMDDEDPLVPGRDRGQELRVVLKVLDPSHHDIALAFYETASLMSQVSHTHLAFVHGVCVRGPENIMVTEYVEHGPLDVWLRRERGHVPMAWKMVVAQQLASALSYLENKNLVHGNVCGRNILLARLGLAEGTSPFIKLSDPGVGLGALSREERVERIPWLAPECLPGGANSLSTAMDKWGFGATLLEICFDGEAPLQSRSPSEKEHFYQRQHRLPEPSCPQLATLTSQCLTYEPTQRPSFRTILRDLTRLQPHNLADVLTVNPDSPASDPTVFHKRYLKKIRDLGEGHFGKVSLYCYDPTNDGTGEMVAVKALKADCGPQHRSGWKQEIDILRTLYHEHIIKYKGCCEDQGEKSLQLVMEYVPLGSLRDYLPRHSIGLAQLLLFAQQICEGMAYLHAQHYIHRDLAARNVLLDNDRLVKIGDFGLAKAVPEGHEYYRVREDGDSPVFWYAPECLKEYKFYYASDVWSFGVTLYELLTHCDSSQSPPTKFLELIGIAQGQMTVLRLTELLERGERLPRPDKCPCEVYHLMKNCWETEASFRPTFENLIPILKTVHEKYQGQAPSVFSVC
T2 sequence (O60674 whole entry): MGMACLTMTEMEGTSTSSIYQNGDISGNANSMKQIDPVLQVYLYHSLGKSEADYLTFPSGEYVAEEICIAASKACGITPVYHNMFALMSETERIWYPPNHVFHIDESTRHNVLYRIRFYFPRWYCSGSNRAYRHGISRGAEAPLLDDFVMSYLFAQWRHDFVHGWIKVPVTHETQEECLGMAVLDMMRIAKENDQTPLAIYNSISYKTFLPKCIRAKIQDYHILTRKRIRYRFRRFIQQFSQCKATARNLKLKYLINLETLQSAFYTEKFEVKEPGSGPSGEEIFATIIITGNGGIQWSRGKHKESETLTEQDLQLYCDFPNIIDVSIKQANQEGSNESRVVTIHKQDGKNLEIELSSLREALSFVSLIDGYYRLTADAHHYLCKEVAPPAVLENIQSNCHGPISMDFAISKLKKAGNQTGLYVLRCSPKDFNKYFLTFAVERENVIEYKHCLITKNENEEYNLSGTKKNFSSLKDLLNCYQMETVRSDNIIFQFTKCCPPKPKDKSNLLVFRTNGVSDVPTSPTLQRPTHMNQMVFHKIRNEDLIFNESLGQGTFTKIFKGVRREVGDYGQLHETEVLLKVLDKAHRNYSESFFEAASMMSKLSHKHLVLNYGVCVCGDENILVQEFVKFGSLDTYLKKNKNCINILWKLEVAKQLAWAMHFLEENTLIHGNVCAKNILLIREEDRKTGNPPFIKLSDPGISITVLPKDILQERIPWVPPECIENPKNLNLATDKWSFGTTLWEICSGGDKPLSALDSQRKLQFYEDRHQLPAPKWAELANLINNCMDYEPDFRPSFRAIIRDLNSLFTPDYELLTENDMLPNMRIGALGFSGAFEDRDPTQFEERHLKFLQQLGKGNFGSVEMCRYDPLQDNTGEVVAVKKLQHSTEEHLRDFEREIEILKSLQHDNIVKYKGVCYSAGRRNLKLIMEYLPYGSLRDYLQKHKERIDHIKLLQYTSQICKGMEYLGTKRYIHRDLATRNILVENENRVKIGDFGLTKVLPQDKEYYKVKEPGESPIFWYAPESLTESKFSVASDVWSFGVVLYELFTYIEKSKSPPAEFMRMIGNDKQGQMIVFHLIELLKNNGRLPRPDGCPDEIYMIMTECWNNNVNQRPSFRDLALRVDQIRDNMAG
T3 sequence (P23458 whole entry): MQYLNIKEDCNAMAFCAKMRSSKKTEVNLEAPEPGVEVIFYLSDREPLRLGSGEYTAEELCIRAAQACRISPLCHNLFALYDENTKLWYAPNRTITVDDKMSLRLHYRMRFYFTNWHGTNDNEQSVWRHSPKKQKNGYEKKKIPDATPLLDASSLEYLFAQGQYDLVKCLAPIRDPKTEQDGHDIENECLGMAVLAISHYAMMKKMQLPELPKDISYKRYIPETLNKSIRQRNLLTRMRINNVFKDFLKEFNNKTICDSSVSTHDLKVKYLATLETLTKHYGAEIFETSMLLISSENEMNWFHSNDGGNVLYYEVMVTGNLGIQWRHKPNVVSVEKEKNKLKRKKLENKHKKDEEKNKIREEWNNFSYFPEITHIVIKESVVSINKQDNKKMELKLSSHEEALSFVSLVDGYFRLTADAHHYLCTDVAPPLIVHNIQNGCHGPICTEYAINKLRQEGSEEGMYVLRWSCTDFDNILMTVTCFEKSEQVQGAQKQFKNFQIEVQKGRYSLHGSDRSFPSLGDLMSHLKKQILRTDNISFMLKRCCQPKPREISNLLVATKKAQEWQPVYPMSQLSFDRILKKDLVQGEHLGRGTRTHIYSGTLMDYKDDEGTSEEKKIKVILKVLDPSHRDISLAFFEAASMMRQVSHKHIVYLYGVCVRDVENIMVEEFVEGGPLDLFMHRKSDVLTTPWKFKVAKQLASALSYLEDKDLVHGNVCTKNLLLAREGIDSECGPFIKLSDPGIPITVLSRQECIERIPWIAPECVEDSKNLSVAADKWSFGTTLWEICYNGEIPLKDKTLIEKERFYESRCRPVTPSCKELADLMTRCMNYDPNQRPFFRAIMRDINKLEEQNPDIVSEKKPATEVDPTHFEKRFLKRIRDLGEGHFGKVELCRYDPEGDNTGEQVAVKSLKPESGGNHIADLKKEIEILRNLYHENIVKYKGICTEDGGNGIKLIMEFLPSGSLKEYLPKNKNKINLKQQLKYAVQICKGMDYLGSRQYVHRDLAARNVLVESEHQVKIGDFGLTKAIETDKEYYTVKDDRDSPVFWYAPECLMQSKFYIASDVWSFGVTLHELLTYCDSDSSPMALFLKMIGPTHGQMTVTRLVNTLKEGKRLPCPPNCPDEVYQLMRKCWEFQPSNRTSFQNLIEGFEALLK

For the compound `CNCCC(c1ccc(-n2cc(-c3ccnc4[nH]cnc34)cn2)nc1)C(F)(F)F` (stereo not shown) [Example 1200, 3-(6-(4-(3H-imidazo[4,5-b]pyridin-7-yl)-1H-pyrazol-1-yl)pyridin-3-yl)-4,4,4-trifluoro-N-methylbutan-1-amine], the IC50 in assay [1] is 1 µM; in assay [2], 0.009 µM; in assay [3] (TF-1 cells), 0.1 µM; in assay [4] (HT-2 cells), 0.6 µM; in assay [5] it was 0.015 µM; in assay [6], 0.023 µM. Also, the IC50 in assay [7] came out at 0.52 µM.
Turning to `O=C(CCC(c1ccc(-n2cc(-c3ccnc4[nH]cnc34)cn2)nc1)C(F)(F)F)NC1CC1` (stereo not shown) [Example 1150, 4-(6-(4-(3H-imidazo[4,5-b]pyridin-7-yl)-1H-pyrazol-1-yl)pyridin-3-yl)-N-cyclopropyl-5,5,5-trifluoropentanamide], the IC50 in assay [1] (Homo sapiens) is more than 1 µM; in assay [2], less than 0.1 µM; in assay [3] (Homo sapiens, TF-1, TF-1 cells), more than 0.5 µM; in assay [4] (HT2, HT-2 cells), more than 1 µM; in assay [5] it was less than 0.1 µM; in assay [6], less than 0.1 µM. The IC50 in assay [7] is more than 1 µM.
Consider `CC(C)NC(=O)CCC(O)(c1ccc(-n2cc(-c3ccnc4[nH]cnc34)cn2)nc1)C(F)(F)F` (stereo not shown) [Example 1238, 4-(6-(4-(3H-imidazo[4,5-b]pyridin-7-yl)-1H-pyrazol-1-yl)pyridin-3-yl)-5,5,5-trifluoro-4-hydroxy-N-isopropylpentanamide], for which the IC50 in assay [1] (Homo sapiens) was 1 µM; in assay [3] (Homo sapiens, TF-1, TF-1 cells), more than 0.1 µM; in assay [4] (HT2, HT-2 cells), more than 0.1 µM; in assay [5], more than 0.03 µM; in assay [6], 0.003 µM; in assay [7] it was more than 0.1 µM.
In the case of `O=C(NCC(F)(F)F)N1CCN(c2ccnc3[nH]c(=O)[nH]c23)CC1` [Example 1011, N-(2,2,2-trifluoroethyl)-4-(2,3-dihydro-2-oxo-1H-imidazo[4,5-b]pyridin-7-yl)piperazine-1-carboxamide], the IC50 was more than 10 µM in assay [1] (Homo sapiens); more than 1 µM in assay [2]; more than 10 µM in assay [3] (Homo sapiens, TF-1, TF-1 cells); more than 10 µM in assay [4] (HT2, HT-2 cells); more than 1 µM in assay [5]; more than 1 µM in assay [7].
Regarding `CS(=O)(=O)NCc1ccc(-n2cc(-c3ccnc4[nH]cnc34)cn2)nc1` [Example 1090, N-((6-(4-(3H-imidazo[4,5-b]pyridin-7-yl)-1H-pyrazol-1-yl)pyridin-3-yl)methyl)methanesulfonamide], the IC50 in assay [1] (Homo sapiens) was more than 10 µM; in assay [2], 0.12 µM; in assay [3] (Homo sapiens, TF-1, TF-1 cells), more than 1 µM; in assay [4] (HT2, HT-2 cells), more than 1 µM; in assay [5] it was 0.3 µM; in assay [6], 0.053 µM. The IC50 in assay [7] is more than 1 µM.
With `CNC(=O)CC(c1ccc(-n2cc(-c3ccnc4[nH]cnc34)cn2)nc1)C(F)(F)F` (stereo not shown) [Example 1145, 3-(6-(4-(3H-imidazo[4,5-b]pyridin-7-yl)-1H-pyrazol-1-yl)pyridin-3-yl)-4,4,4-trifluoro-N-methylbutanamide], the IC50 in assay [1] (Homo sapiens) was more than 1 µM; in assay [2], less than 0.1 µM; in assay [3] (Homo sapiens, TF-1, TF-1 cells), more than 0.5 µM; in assay [4] (HT2, HT-2 cells) it was more than 1 µM; in assay [5], more than 0.1 µM; in assay [6] it was less than 0.1 µM. In addition, in assay [7], the IC50 is more than 1 µM.
In the case of `FC(F)(F)[C@@H](c1ccc(-n2cc(-c3ccnc4[nH]cnc34)cn2)nc1)C1COC1` (single isomer, unassigned) [Example 1184], the IC50 in assay [1] (Homo sapiens) was more than 1 µM; in assay [2], less than 0.1 µM; in assay [3] (Homo sapiens, TF-1, TF-1 cells), more than 0.8 µM; in assay [4] (HT2, HT-2 cells) it was 1.5 µM; in assay [5] it was more than 0.1 µM; in assay [6] it was less than 0.1 µM. Also, the IC50 in assay [7] is more than 1 µM.
In the case of `CC(C)N1CCC([C@](O)(c2ccc(-n3cc(-c4ccnc5[nH]cnc45)cn3)nc2)C(F)(F)F)C1` (stereo partly drawn) [Example 1226, (S)-1-(6-(4-(3H-imidazo[4,5-b]pyridin-7-yl)-1H-pyrazol-1-yl)pyridin-3-yl)-2,2,2-trifluoro-1-(1-isopropylpyrrolidin-3-yl)ethanol], the IC50 in assay [1] (Homo sapiens) is more than 1 µM; in assay [2], more than 0.03 µM; in assay [3] (Homo sapiens, TF-1, TF-1 cells), more than 0.5 µM; in assay [4] (HT2, HT-2 cells) it was more than 0.75 µM; in assay [5], more than 0.03 µM; in assay [6], less than 0.01 µM. For the same compound, the IC50 in assay [7] is more than 1 µM.
With `CS(=O)(=O)NCCC(c1ccc(-n2cc(-c3ccnc4[nH]cnc34)cn2)nc1)C(F)(F)F` (stereo not shown) [Example 1143, N-(3-(6-(4-(3H-imidazo[4,5-b]pyridin-7-yl)-1H-pyrazol-1-yl)pyridin-3-yl)-4,4,4-trifluorobutyl)methanesulfonamide], the IC50 in assay [1] (Homo sapiens) is less than 1 µM; in assay [2], less than 0.1 µM; in assay [3] (Homo sapiens, TF-1, TF-1 cells), 0.47 µM; in assay [4] (HT2, HT-2 cells), 0.67 µM; in assay [5] it was less than 0.1 µM; in assay [6], less than 0.1 µM. Also, in assay [7], the IC50 is more than 1 µM.
For the compound `CC(C)NCCOC(c1ccc(-n2cc(-c3ccnc4[nH]cnc34)cn2)nc1)C(F)(F)F` (stereo not shown) [Example 1241, N-(2-(1-(6-(4-(3H-imidazo[4,5-b]pyridin-7-yl)-1H-pyrazol-1-yl)pyridin-3-yl)-2,2,2-trifluoroethoxy)ethyl)propan-2-amine, TFA salt], the IC50 in assay [1] (Homo sapiens) is more than 1 µM; in assay [2] it was less than 0.1 µM; in assay [3] (Homo sapiens, TF-1, TF-1 cells), more than 0.5 µM; in assay [4] (HT2, HT-2 cells), more than 0.75 µM; in assay [5] it was more than 0.1 µM; in assay [6] it was less than 0.1 µM. Besides, the IC50 in assay [7] was more than 1 µM.
In the case of `CNS(=O)(=O)CCC(c1ccc(-n2cc(-c3ccnc4[nH]cnc34)cn2)nc1)C(F)(F)F` (stereo not shown) [Example 1142, 3-(6-(4-(3H-imidazo[4,5-b]pyridin-7-yl)-1H-pyrazol-1-yl)pyridin-3-yl)-4,4,4-trifluoro-N-methylbutane-1-sulfonamide], the IC50 in assay [1] (Homo sapiens) is more than 1 µM; in assay [2] it was less than 0.1 µM; in assay [3] (Homo sapiens, TF-1, TF-1 cells) it was more than 0.5 µM; in assay [4] (HT2, HT-2 cells), more than 0.5 µM; in assay [6], less than 0.1 µM; in assay [7], more than 1 µM.
In the case of `O=C(Nc1ccncc1)N1CCN(c2ccnc3[nH]c(=O)[nH]c23)CC1` [Example 1014, 4-(2,3-dihydro-2-oxo-1H-imidazo[4,5-b]pyridin-7-yl)-N-(pyridin-4-yl)piperazine-1-carboxamide], the IC50 in assay [1] (Homo sapiens) is more than 10 µM; in assay [2], more than 1 µM; in assay [3] (Homo sapiens, TF-1, TF-1 cells), more than 10 µM; in assay [4] (HT2, HT-2 cells), more than 10 µM; in assay [7], more than 1 µM.
